Consider 33 compounds from patent publication US20100120763A1, “IMIDAZO[5,1-C][1,2,4]BENZOTRIAZINE DERIVATIVES AS INHIBITORS OF PHOSPHODIESTERASES” (priority 2008, published 2010).

For one data set, the target named is T1, PDE2A (Homo sapiens, UniProt O00408).
T1 construct: made in house; host or cells: SF21 insect cells (baculovirus)
Description: Inhibition of recombinant PDE2A (expressed in baculovirus/SF21-cells), [3H]-cAMP SPA. In kind it is biochemical. The gist of the method: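 Membrane fraction of baculovirus/SF21-expressed PDE2A was incubated 30 min at 37° C in Tris-HCl/MgCl2 pH 7.4 with 0.5 μM [3H]-cAMP and 1000 nM cGMP as activator. Product was detected by SPA scintillation. IC50 used a Hill-plot 2-parameter model.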

The next data set deals with T2, PDE10A (Homo sapiens, UniProt Q9Y233).
T2 construct: made in house; host or cells: SF21 insect cells (baculovirus)
T2 sequence (Q9Y233 1-779 isoform Q9Y233-1): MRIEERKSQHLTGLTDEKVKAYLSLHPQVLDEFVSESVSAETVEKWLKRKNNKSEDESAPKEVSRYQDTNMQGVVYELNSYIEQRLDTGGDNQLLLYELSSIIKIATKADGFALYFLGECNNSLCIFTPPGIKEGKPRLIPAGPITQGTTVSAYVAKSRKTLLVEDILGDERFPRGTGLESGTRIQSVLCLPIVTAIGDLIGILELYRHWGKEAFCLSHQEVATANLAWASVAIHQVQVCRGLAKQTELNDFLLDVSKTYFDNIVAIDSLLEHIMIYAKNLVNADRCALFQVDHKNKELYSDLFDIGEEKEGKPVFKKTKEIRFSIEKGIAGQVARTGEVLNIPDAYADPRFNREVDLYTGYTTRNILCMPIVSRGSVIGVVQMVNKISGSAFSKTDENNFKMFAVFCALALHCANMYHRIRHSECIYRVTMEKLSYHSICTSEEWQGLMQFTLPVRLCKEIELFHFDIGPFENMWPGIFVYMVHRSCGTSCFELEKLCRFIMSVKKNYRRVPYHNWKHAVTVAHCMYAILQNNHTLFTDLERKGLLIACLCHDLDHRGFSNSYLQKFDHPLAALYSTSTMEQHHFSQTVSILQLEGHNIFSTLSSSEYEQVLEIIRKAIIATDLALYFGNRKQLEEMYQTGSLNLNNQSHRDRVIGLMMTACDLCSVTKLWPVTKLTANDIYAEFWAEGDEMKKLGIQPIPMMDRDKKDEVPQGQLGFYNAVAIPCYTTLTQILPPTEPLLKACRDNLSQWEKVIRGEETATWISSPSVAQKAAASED
Put plainly: Inhibition of recombinant PDE10A (baculovirus/SF21 system), [3H]-cAMP SPA. It is filed as biochemical.

Where [1] appears, read: recombinant PDE10A1, cytosolic, 0.1 μM [3H]-cAMP, 37° C., 30 minutes, read-out: PDE10A IC50.

Where two headings read alike, the source gives them in different places.

T1 sequence (O00408 whole entry): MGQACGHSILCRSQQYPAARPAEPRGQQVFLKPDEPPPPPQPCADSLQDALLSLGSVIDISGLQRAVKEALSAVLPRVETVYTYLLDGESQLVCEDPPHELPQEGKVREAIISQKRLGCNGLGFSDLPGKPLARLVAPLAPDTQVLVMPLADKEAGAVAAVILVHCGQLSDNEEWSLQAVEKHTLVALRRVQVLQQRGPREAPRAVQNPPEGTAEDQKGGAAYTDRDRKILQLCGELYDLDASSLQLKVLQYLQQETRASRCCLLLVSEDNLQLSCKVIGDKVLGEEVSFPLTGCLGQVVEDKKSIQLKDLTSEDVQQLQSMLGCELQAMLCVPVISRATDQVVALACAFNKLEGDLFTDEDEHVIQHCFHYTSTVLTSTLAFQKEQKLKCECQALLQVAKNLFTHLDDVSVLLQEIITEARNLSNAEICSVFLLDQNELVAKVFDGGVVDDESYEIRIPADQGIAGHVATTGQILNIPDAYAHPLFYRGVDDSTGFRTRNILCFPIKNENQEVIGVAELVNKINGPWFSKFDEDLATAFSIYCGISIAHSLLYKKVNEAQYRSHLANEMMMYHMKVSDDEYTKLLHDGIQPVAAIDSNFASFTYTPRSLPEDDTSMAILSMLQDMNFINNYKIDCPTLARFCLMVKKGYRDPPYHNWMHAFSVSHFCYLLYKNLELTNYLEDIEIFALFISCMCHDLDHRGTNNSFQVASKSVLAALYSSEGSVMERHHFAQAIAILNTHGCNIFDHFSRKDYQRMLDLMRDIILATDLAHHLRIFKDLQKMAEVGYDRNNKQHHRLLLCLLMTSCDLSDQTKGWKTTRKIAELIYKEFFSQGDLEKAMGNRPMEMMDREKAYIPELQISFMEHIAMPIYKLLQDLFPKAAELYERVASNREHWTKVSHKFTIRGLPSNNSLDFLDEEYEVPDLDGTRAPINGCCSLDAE

`COc1ccc(Cl)c(-c2nc(C)c3nnc4ccc(F)cc4n23)c1` [Example 18, 1-(2-chloro-5-methoxyphenyl)-8-fluoro-3-methylbenzo[e]imidazo[5,1-c][1,2,4]triazine] gave a melting point of 190 to 192 °C. Besides, at PDE2A, the half-inhibitory concentration (IC50) came to 20.1 nM. Moreover, the IC50 at PDE10A (setting [1]) was determined as 183 nM.
For the compound `CCC(C)c1nc(C)c2nnc3ccc(F)cc3n12` (centres unmarked) [Example 10, 1-sec-butyl-8-fluoro-3-methylbenzo[e]imidazo[5,1-c][1,2,4]triazine], the melting point lay within 169 to 171.5 °C. Further, the IC50 at PDE2A was 1530 nM. Besides, on PDE10A, the IC50 was 410 nM.
`Cc1nc(-c2ccccc2Cl)n2c1nnc1ccc(N3CCOCC3)cc12` [Example 184, 1-(2-Chloro-phenyl)-3-methyl-8-morpholin-4-yl-imidazo[5,1-c][1,2,4]benzotriazine] registered a melting point of 242 to 245 °C. Also, the IC50 at PDE2A came out at 6.39 nM. On PDE10A (setting [1]), the IC50 was determined as 9.77 nM.
In the same order, the values of `Cc1nc(-c2ccnn2C)n2c1nnc1ccc(Cl)cc12` [Example 40, 8-chloro-3-methyl-1-(1-methyl-1H-pyrazol-5-yl)benzo[e]imidazo[5,1-c][1,2,4]triazine] are 230 to 231 °C, 1410 nM and 3940 nM.
In the same order, the values of `Cc1cc(F)ccc1-c1nc(C)c2nnc3cc(F)ccc3n12` [Example 27, 7-fluoro-1-(4-fluoro-2-methylphenyl)-3-methylbenzo[e]imidazo[5,1-c][1,2,4]triazine] are 181 to 184 °C, 298 nM and 911 nM.
The compound `CCCCOc1ccc(F)c(-c2nc(C)c3nnc4ccc(F)cc4n23)c1` [Example 22, 1-(5-butoxy-2-fluorophenyl)-8-fluoro-3-methylbenzo[e]imidazo[5,1-c][1,2,4]triazine] gave a melting point of 148 to 151 °C. Also, the IC50 on PDE2A came to 37.7 nM. At PDE10A (setting [1]), the IC50 was greater than 500 nM.
In turn, `CCc1nc(C)c2nnc3ccc(F)cc3n12` [Example 3, 1-ethyl-8-fluoro-3-methyl-imidazo[5,1-c][1,2,4]benzotriazine] registered a melting point of 187 to 190 °C. Also, the IC50 on PDE2A is 3760 nM. Moreover, the IC50 on PDE10A (setting [1]) came out at 3900 nM.
In the same order, the values of `COc1ccc2c(c1)nnc1c(C)nc(-c3cccnc3C)n12` [Example 36, 7-methoxy-3-methyl-1(2-methylpyridin-3-yl)benzo[e]imidazo[5,1-c][1,2,4]triazine] are 202 to 205 °C, 73.4 nM and 351 nM.
In turn, `Cc1ncn2c1nnc1ccc(F)cc12` [Example 11, 8-fluoro-3-methylbenzo[e]imidazo[5,1-c][1,2,4]triazine] displayed a melting point of 230 °C. Besides, on PDE2A, the half-inhibitory concentration (IC50) was greater than 10000 nM. Also, the IC50 at PDE10A (setting [1]) is greater than 10000 nM.
On to `CCCOc1ccc(F)c(-c2ccc3nnc4c(C)nc(-c5cc(OCCC)ccc5F)n4c3c2)c1` [Example 174, 1,8-Bis-(2-fluoro-5-propoxy-phenyl)-3-methyl-imidazo[5,1-c][1,2,4]benzotriazine], for which the melting point was 134 to 136 °C. Besides, the IC50 on PDE2A came to 3.55 nM. For the same compound, the IC50 at PDE10A (setting [1]) is 41.1 nM.
As to `Cc1nc(-c2cc(OC(C)C)ccc2F)n2c1nnc1cc(F)ccc12` [Example 31, 7-fluoro-1-(2-fluoro-5-isopropoxyphenyl)-3-methylbenzo[e]imidazo[5,1-c][1,2,4]triazine], the melting point is 133 to 136 °C. In addition, the IC50 on PDE2A was 551 nM. Moreover, at PDE10A (setting [1]), the IC50 turned out to be 5340 nM.
On the same counts, the results for `COc1ccc2nnc3c(C)nc(-c4cc(Cl)ccc4Cl)n3c2c1` [Example 5, 1-(2,5-dichlorophenyl)-8-methoxy-3-methyl-imidazo[5,1-c][1,2,4]benzotriazine] are 165 to 168 °C, 3.31 nM and 23.7 nM.
Turning to `Cc1nc(C2CCCCC2)n2c1nnc1ccc(F)cc12` [Example 4, 1-cyclohexyl-8-fluoro-3-methyl-imidazo[5,1-c][1,2,4]benzotriazine], the melting point was 246 to 250 °C (dec.). Besides, on PDE2A, the IC50 was determined as 541 nM. For the same compound, the IC50 at PDE10A (setting [1]) was determined as 228 nM.
In the same order, the values of `Cc1ncccc1-c1nc(C)c2nnc3ccc(F)cc3n12` [Example 12, 8-fluoro-3-methyl-1-(2-methylpyridin-3-yl)benzo[e]imidazo[5,1-c][1,2,4]triazine] are 207 to 210 °C, 187 nM and 780 nM.
On the same counts, the results for `Cc1nc(-c2ccccc2Cl)n2c1nnc1ccc(F)cc12` [Example 13, 1-(2-chlorophenyl)-8-fluoro-3-methylbenzo[e]imidazo[5,1-c][1,2,4]triazine] are 189 to 192 °C, 32.6 nM and 86 nM.
On the same counts, the results for `Cc1nc(-c2cc(Cl)ccc2Cl)n2c1nnc1ccc(Cl)cc12` [Example 37, 8-chloro-1-(2,5-dichlorophenyl)-3-methylbenzo[e]imidazo[5,1-c][1,2,4]triazine] are 188 to 190 °C, 5.31 nM and 77.2 nM.
The compound `Cc1ccccc1-c1nc(C)c2nnc3cc(F)ccc3n12` [Example 28, 7-fluoro-3-methyl-1-o-tolylbenzo[e]imidazo[5,1-c][1,2,4]triazine] had a melting point of 149 to 152 °C. Further, on PDE2A, the IC50 was found to be 122 nM. The IC50 at PDE10A (setting [1]) is 359 nM.
In the same order, the values of `COc1ccccc1-c1nc(C)c2nnc3ccc(F)cc3n12` [Example 16, 8-fluoro-1-(2-methoxyphenyl)-3-methylbenzo[e]imidazo[5,1-c][1,2,4]triazine] are 196 to 198 °C, 351 nM and 456 nM.
In the same order, the values of `CCCc1nc(C)c2nnc3ccc(F)cc3n12` [Example 1, 8-fluoro-3-methyl-1-propyl-imidazo[5,1-c][1,2,4]benzotriazine] are 124.5 to 126.5 °C, 716 nM and 626 nM.
In the case of `CCCOc1ccc(F)c(-c2nc(C)c3nnc4ccc(F)cc4n23)c1` [Example 23, 8-fluoro-1-(2-fluoro-5-propoxyphenyl)-3-methylbenzo[e]imidazo[5,1-c][1,2,4]triazine], the melting point is 153 to 155 °C. Further, the IC50 at PDE2A is 59.1 nM. Also, the concentration for half-maximal inhibition (IC50) on PDE10A (setting [1]) was found to be 1540 nM.
In the same order, the values of `Cc1nc(-c2ccccc2Cl)n2c1nnc1ccc(-n3ccnc3)cc12` [Example 185, 1-(2-Chloro-phenyl)-8-imidazol-1-yl-3-methyl-imidazo[5,1-c][1,2,4]benzotriazine] are 95 to 98 °C, 7.14 nM and 8.97 nM.
On the same counts, the results for `Cc1nc(-c2cc(OC(C)C)ccc2F)n2c1nnc1ccc(Cl)cc12` [Example 43, 8-chloro-1-(2-fluoro-5-isopropoxyphenyl)-3-methylbenzo[e]imidazo[5,1-c][1,2,4]triazine] are 174 to 177 °C, 233 nM and greater than 500 nM.
On the same counts, the results for `COc1ccc2c(c1)nnc1c(C)nc(-c3ccccc3Cl)n12` [Example 34, 1-(2-chlorophenyl)-7-methoxy-3-methylbenzo[e]imidazo[5,1-c][1,2,4]triazine] are 163 to 165 °C, 26.7 nM and 75.2 nM.
The compound `Cc1ncn2c1nnc1ccc(Cl)cc12` [Example 42, 8-chloro-3-methylbenzo[e]imidazo[5,1-c][1,2,4]triazine] came in with a melting point of 210 °C. Also, the IC50 at PDE2A was greater than 10000 nM. Moreover, the IC50 at PDE10A (setting [1]) is greater than 10000 nM.
As for `CCCCOc1ccc(F)c(-c2ccc3nnc4c(C)nc(-c5cc(OCCCC)ccc5F)n4c3c2)c1` [Example 175, 1,8-Bis-(5-butoxy-2-fluoro-phenyl)-3-methyl-imidazo[5,1-c][1,2,4]benzotriazine], the melting point was in the range of 94 to 95 °C. On PDE2A, the IC50 was determined as 0.77 nM. The IC50 at PDE10A (setting [1]) turned out to be 21.6 nM.
The compound `CCOc1ccc(F)c(-c2nc(C)c3nnc4ccc(F)cc4n23)c1` [Example 24, 1-(5-ethoxy-2-fluorophenyl)-8-fluoro-3-methylbenzo[e]imidazo[5,1-c][1,2,4]triazine] returned a melting point of 189 to 191 °C. At PDE2A, the IC50 stood at 240 nM. For the same compound, the IC50 at PDE10A (setting [1]) is greater than 500 nM.
The compound `COc1cc2nnc3c(C)nc(-c4cc(C)ccc4Cl)n3c2cc1OC` [Example 56, 1-(2-chloro-5-methylphenyl)-7,8-dimethoxy-3-methylbenzo[e]imidazo[5,1-c][1,2,4]triazine] came in with a melting point of 247 to 249 °C.
`COc1cc2nnc3c(C)nc(-c4ccccc4C(F)(F)F)n3c2cc1OC` [Example 57, 7,8-dimethoxy-3-methyl-1-(2-(trifluoromethyl)phenyl)benzo[e]imidazo[5,1-c][1,2,4]triazine] had a melting point of 147 to 150 °C.
Still for that read-out and setting: then `Cc1nc(-c2cc(OC(C)C)ccc2F)n2c1nnc1ccc(-c3cc(OC(C)C)ccc3F)cc12`, with 160.5 to 162 °C.
Take `CCCCOc1ccc(F)c(-c2nc(C)c3nnc4cc(F)ccc4n23)c1`: the melting point was in the range of 91 to 94 °C.
In turn, `Cc1nc(-c2cc(Cl)ccc2Cl)n2c1nnc1ccc(-c3cc(Cl)ccc3Cl)cc12` displayed a melting point of 190 to 193 °C.
For the compound `COc1ccccc1-c1nc(C)c2nnc3ccc(Cl)cc3n12` [Example 39, 8-chloro-1-(2-methoxyphenyl)-3-methylbenzo[e]imidazo[5,1-c][1,2,4]triazine], the melting point fell in the range of 179 to 182 °C. Also, the half-inhibitory concentration (IC50) on PDE10A (setting [1]) amounted to 115 nM.
With `COc1cc2nnc3c(C)nc(CC(C)C)n3c2cc1OC` [Example 53, 1-isobutyl-7,8-dimethoxy-3-methylbenzo[e]imidazo[5,1-c][1,2,4]triazine], the melting point lay in the range of 196 to 199 °C.

By melting point is commonly meant the temperature, or range, at which the solid turns liquid. As usually defined, the IC50 is the concentration needed to halve the response being measured.
